Laboratory results published in patent US12528832B2, “Crystalline or amorphous form of Bcl-2/Bcl-xL inhibitor compound or its salts” (ASCENTAGE PHARMA (SUZHOU) CO., LTD., priority 2020, dated 2026).
Structures can show the parent of a compound that is named as a salt.

Key:
[1] = Hygroscopicity test, dynamic water adsorption (DVS); format: physicochemical
Experimental: Take about 10 mg of the Amorphous form XIV sample of the compound of formula I for dynamic water adsorption (DVS) test.

[2] = Stability test of amorphous form XIV (40° C., high humidity 92.5% RH, light; content, related substances); format: physicochemical
Experimental: Pack the amorphous sample with nitrogen, shading, and moisture-proof, and place it under 40° C., high humidity 92.5% RH, light conditions, and take samples at 0 days/5 days/10 days to investigate its content, related substances and crystal forms (light conditions: total illuminance≥1.2×106 Lux·hr, near ultraviolet energy≥200 w·hr/m2).

[3] = Stability test of salt form screening (25° C., R.T./75% RH, light; HPLC, XRPD); format: physicochemical
Experimental: Take an appropriate amount of the compound into an 8 mL glass bottle, and then place it at room temperature (25° C., open), high humidity (room temperature/75% RH, open) and light (room temperature, white light: 6980 lux, UV 282 μW/cm2). Take samples for testing on the 5th, 10th, and 30th day (HPLC, XRPD).

[4] = Physicochemical stability of crystalline form VI, one week storage (HPLC purity, XRPD form)
[5] = 10 Days, high humidity 92.5% RH
[6] = Light, room temperature, 5 Days
[7] = Light, room temperature, 10 Days

| Total impurities (%) ([3]; 25° C., open, 5 Days) | Total impurities (%) ([3]; 25° C., open, 10 Days) | Total impurities (%) ([3]; 25° C., open, 30 Days) | Total impurities (%) ([3]; Initial, 0 Days) | Total impurities (%) [3, 6] | Total impurities (%) [3, 7] | Total impurities (%) ([3]; R.T./75% RH, open, 5 Days) | Total impurities (%) ([3]; R.T./75% RH, open, 10 Days) | Total impurities (%) ([3]; R.T./75% RH, open, 30 Days) | Structure (SMILES) | also measured |
| --- | --- | --- | --- | --- | --- | --- | --- | --- | --- | --- |
|  |  |  |  |  |  |  |  |  | Cc1c(S(C)(=O)=O)c(-c2cc(F)cc(N3CCN(c4ccc(NS(=O)(=O)c5ccc(N[C@H](CCN6CCC(C(=O)OCCCP(=O)(O)O)CC6)CSc6ccccc6)c(S(=O)(=O)C(F)(F)F)c5)cc4)CC3)c2)c(-c2ccc(Cl)cc2)n1C(C)C [Amorphous XIV] | Hygroscopicity classification ([1]; DVS, 80% RH): Hygroscopic; Moisture gain (80% RH) ([1]; DVS, 80% RH): 4.83%; water absorption during storage ([1]; conclusion from DVS): easily absorb water; physical and chemical stability (summary statement) [2]: good physical and chemical stability; Content(%) ([2]; 0 Days): 99.5%; Total impurities (%) ([2]; 0 Days): 0.39%; Content(%) ([2]; 5 Days, 40° C.): 100.3%; Total impurities (%) ([2]; 5 Days, 40° C.): 0.59%; Content(%) ([2]; 5 Days, high humidity 92.5% RH): 100.7%; Total impurities (%) ([2]; 5 Days, high humidity 92.5% RH): 0.37%; Content(%) ([2]; 5 Days, light): 100.4%; Total impurities (%) ([2]; 5 Days, light): 0.43%; Content(%) ([2]; 10 Days, 40° C.): 99.7%; Total impurities (%) ([2]; 10 Days, 40° C.): 0.64%; Content(%) [2, 5]: 99.7%; Total impurities (%) [2, 5]: 0.39%; Content(%) ([2]; 10 Days, light): 100.1%; Total impurities (%) ([2]; 10 Days, light): 0.41%; stability under high humidity and light conditions ([2]; packed with nitrogen, shading, moisture-proof): stable; stability to heat ([2]; packed with nitrogen, shading, moisture-proof, 40° C.): sensitive to heat |
| 1.63% | 1.58% | 1.86% | 1.40% | 2.09% | 2.69% | 2.25% | 2.98% | 6.11% | Cc1c(S(C)(=O)=O)c(-c2cc(F)cc(N3CCN(c4ccc(NS(=O)(=O)c5ccc(N[C@H](CCN6CCC(C(=O)OCCCP(=O)(O)O)CC6)CSc6ccccc6)c(S(=O)(=O)C(F)(F)F)c5)cc4)CC3)c2)c(-c2ccc(Cl)cc2)n1C(C)C [Amorphous form XII of potassium salt] |  |
| 1.89% | 1.94% | 2.29% | 1.65% | 2.20% | 3.55% | 2.45% | 3.08% | 6.31% | Cc1c(S(C)(=O)=O)c(-c2cc(F)cc(N3CCN(c4ccc(NS(=O)(=O)c5ccc(N[C@H](CCN6CCC(C(=O)OCCCP(=O)(O)O)CC6)CSc6ccccc6)c(S(=O)(=O)C(F)(F)F)c5)cc4)CC3)c2)c(-c2ccc(Cl)cc2)n1C(C)C [Amorphous form XIII of sodium salt] |  |
| 0.79% | 0.89% | 1.23% | 0.73% | 1.33% | 1.94% | 1.59% | 2.59% | 7.00% | Cc1c(S(C)(=O)=O)c(-c2cc(F)cc(N3CCN(c4ccc(NS(=O)(=O)c5ccc(N[C@H](CCN6CCC(C(=O)OCCCP(=O)(O)O)CC6)CSc6ccccc6)c(S(=O)(=O)C(F)(F)F)c5)cc4)CC3)c2)c(-c2ccc(Cl)cc2)n1C(C)C [Amorphous form XV of maleate salt] |  |
| 0.95% | 0.89% | 0.88% | 0.83% | 1.33% | 1.74% | 1.36% | 1.86% | 4.95% | Cc1c(S(C)(=O)=O)c(-c2cc(F)cc(N3CCN(c4ccc(NS(=O)(=O)c5ccc(N[C@H](CCN6CCC(C(=O)OCCCP(=O)(O)O)CC6)CSc6ccccc6)c(S(=O)(=O)C(F)(F)F)c5)cc4)CC3)c2)c(-c2ccc(Cl)cc2)n1C(C)C [Amorphous form XVI of meglumine salt] | physical and chemical stability (summary statement) [3]: good physical and chemical stability |
|  |  |  |  |  |  |  |  |  | Cc1c(S(C)(=O)=O)c(-c2cc(F)cc(N3CCN(c4ccc(NS(=O)(=O)c5ccc(N[C@H](CCN6CCC(C(=O)OCCCP(=O)(O)O)CC6)CSc6ccccc6)c(S(=O)(=O)C(F)(F)F)c5)cc4)CC3)c2)c(-c2ccc(Cl)cc2)n1C(C)C [Crystal form VI] | physical and chemical stability (summary statement) [4]: good physical and chemical stability; change of purity and crystal form ([4]; 25° C./60% RH and 40° C./75% RH for one week): did not change significantly; HPLC purity (Peak area %) ([4]; 25° C./60% RH, one week): 99.01 Peak area %; Solid crystal form ([4]; 25° C./60% RH, one week): Crystal form VI; HPLC purity (Peak area %) ([4]; 40° C./75% RH, one week): 99.06 Peak area %; Solid crystal form ([4]; 40° C./75% RH, one week): Crystal form VI; HPLC purity (Peak area %) ([4]; Initial sample): 99.02 Peak area %; Solid crystal form ([4]; Initial sample): Crystal form VI |
